In ChEMBL document CHEMBL1158738, “Constituents of the leaves and twigs of Calyptranthes pallens collected from an experimental plot in Southern Florida” (J Nat Prod, 2005):
≈ marks a conversion by molar mass, not a printed value.

Key:
KB = experiment: Cytotoxicity against human KB cells; format: functional; conditions: read-out: ED50 (the source's name)
MCF7 = experiment: Cytotoxicity against human MCF7 cells; format: functional; conditions: read-out: ED50 (the source's name)
[1] = Cytotoxicity against HUVEC; format: cell-based; conditions: human, HUVEC cells; read-out: ED50 (the source's name)
LNCaP = experiment: Cytotoxicity against human LNCAP cells; format: functional; conditions: read-out: ED50 (the source's name)
Lu1 = experiment: Cytotoxicity against human Lu1 cells; format: functional; conditions: read-out: ED50 (the source's name)
[2] = Cytotoxicity against human telomerase reverse transcriptase human RPE1 cells; format: functional, TERT-RPE1; conditions: RPE-1, read-out: ED50 (the source's name)

CCCC(=O)c1c(O)c(C)c(OC)c(Cc2c(O)c(C(=O)CCC)c(O)c(C)c2OC)c1O
EC50 (KB): 2.7 µg/mL (≈ 5.86 µM) | EC50 (MCF7): 7.3 µg/mL (≈ 15.9 µM) | CC50 [1]: 6.1 µg/mL (≈ 13.2 µM) | EC50 (LNCaP): 6.6 µg/mL (≈ 14.3 µM) | EC50 (Lu1): 19.4 µg/mL (≈ 42.1 µM)

COc1cc([C@@H]2c3cc(O)c(OC)cc3C[C@@H](C)[C@H]2C)ccc1O [ISOGUAIACIN]
EC50 (KB): 6.4 µg/mL (≈ 19.5 µM) | EC50 [2]: > 20 µg/mL | EC50 (MCF7): 12.4 µg/mL (≈ 37.8 µM) | CC50 [1]: 14.7 µg/mL (≈ 44.8 µM) | EC50 (LNCaP): 11.8 µg/mL (≈ 35.9 µM) | EC50 (Lu1): 15.7 µg/mL (≈ 47.8 µM)

CC1=CC[C@]2(C(=O)O)CC[C@]3(C)[C@H](CC[C@@H]4[C@@]5(C)CC[C@H](O)C(C)(C)[C@@H]5CC[C@]43C)[C@H]2[C@@H]1C
EC50 (KB): > 20 µg/mL | EC50 (MCF7): 9.7 µg/mL (≈ 21.2 µM) | CC50 [1]: 10.4 µg/mL (≈ 22.8 µM) | EC50 (LNCaP): 7.3 µg/mL (≈ 16 µM) | EC50 (Lu1): 12.9 µg/mL (≈ 28.2 µM)
